From patent US4372953A, “Tetrazole derivatives, and anti-ulcer composition containing the same” (Otsuka Pharmaceutical Company, Limited, priority 1980, dated 1983) come the findings set out here.

Structures are written as SMILES. Where two headings read alike, the source gives them in different places. Some results are limits rather than exact numbers.

The test system of test [1] is gastric juice secretion. As to the kind of experiment: Shay rat pylorus ligation method (gastric juice secretion-inhibiting activity). In kind it is in vivo, male Wistar rats. To be noted: 100 mg/kg, 4 hours after ligation; for inhibition in vivo at 100 mg/kg: Rattus norvegicus, 4 h. The protocol: The pharmacological activities of the compounds (1) were tested by a Shay rat pylorus ligation method (cf. H. Shay et al: Gastroenterol., Vol. 5, page 43, 1945) which is the most popular method for testing of gastric juice secretion-inhibiting activity. The test was carried out by using male Wistar rats, weighing about 170 g and fasting for 24 hours.
Test compounds were administered 30 minutes before the pylorus ligation in a dose of 100 mg/kg in subcutaneous route in case of test compounds 37, 38, 50, 51 and 52, in a dose of 200 mg/kg in subcutaneous route in case of test compounds 105 and 106 and in dose of 100 mg/kg in duodenal route in case of other test compounds, and the volume, total acidity and pepsin activity of the gastric juice were measured 4 hours after the ligation. As a control, a saline solution was administered instead of the test compound. The inhibitory ratio (%) of the test compounds were calculated when the inhibitory activities of the control were counted as zero (0).
(§1) In the table, the inhibitory ratio (%) was evaluated as follows: […]

Test [2] has as its system stress ulcer. The experiment in a line: Stress ulcer (restraint and water immersion). In kind it is in vivo, male Wistar rats. To be noted: Rattus norvegicus, po, 7 h, read-out: Inhibitory ratio of stress ulcer; for inhibition in vivo: concentration of 1×10^-3 mole. How it is done:
After male Wistar rats weighing about 170 g was fasted for 24 hours, the rats were restrained in a stress cage and dipped in water bath at 23° C. till chest of the animals. After 7 hours, the rats were killed and the stomach was isolated. Into the isolated stomach 10% formalin (8 ml) was poured and settled. The stomach was cut open at the greater curvature, and the length of each ulcer on the membrane was measured. Sum of the length of all ulcers was shown as ulcer index (UI). The test compound was orally administered to the rats before restraint in a stress cage in a dose of 300 mg/kg in the form of 0.5% CMC suspension in case of test compounds 3, 4, 6, 15 and 27 and in a concentration of 1×10^-3 mole in case of other test compounds. As a control, only the solvent (CMC solution) was administered likewise. The inhibitory ratio (%) of stress ulcer of the test compounds was calculated by the following equation: [formula]
as §1

[3] abbreviates: duodenal route, read-out: Inhibitory ratio, volume of gastric juice.
Setting [4] is: sc, subcutaneous route, read-out: Inhibitory ratio, pepsin activity.
Where [5] appears, read: sc, subcutaneous route, read-out: Inhibitory ratio, total acidity.
The mark [6] stands for this setting: sc, subcutaneous route, read-out: Inhibitory ratio, volume of gastric juice.

For the compound `Cn1nnnc1SCCCSc1nc2ccccc2[nH]1` [Test compound 19, 1-Methyl-5-[3-(2-benzimidazolyl)thiopropyl]thio-1,2,3,4-tetrazole], the inhibition in vivo at 100 mg/kg in test [1] (setting [3]) was 10 to 50%.

In the case of `COc1ccc(C(=O)CCCSc2nnnn2C)cc1` [Test compound 63, 1-Methyl-5-[3-(4-methoxybenzoyl)propyl]thio-1,2,3,4-tetrazole], in test [1] (setting [3]), the inhibition in vivo at 100 mg/kg lay in the range of 10 to 50%. Take `CCCCOc1ccc(C(=O)CCCSc2nnnn2C)cc1` [Test compound 79, 1-Methyl-5-[3-(4-butoxybenzoyl)propyl]thio-1,2,3,4-tetrazole]: in test [2], the inhibition in vivo is greater than 60%. For `Cn1nnnc1SCCCCSc1nc2ccccc2c(=O)[nH]1` [Test compound 29, 1-Methyl-5-[4-(4-oxo-3,4-dihydroquinazolin-2-yl)thiobutyl]thio-1,2,3,4-tetrazole], the inhibition in vivo at 100 mg/kg in test [1] (setting [3]) was 10 to 50%. On to `Cc1nnnn1CCCC(=O)N1CCOCC1` [Test compound 117, 5-Methyl-1-(3-morpholinocarbonylpropyl)-1,2,3,4-tetrazole], for which, in test [2], the inhibition in vivo was 30 to 60%. For the compound `CC(=O)N(C)CCCSc1nnnn1C` [Test compound 83, 1-Methyl-5-[3-(N-methyl-N-acetylamino)propyl]thio-1,2,3,4-tetrazole], in test [2], the inhibition in vivo was greater than 60%. As for `c1ccc(-n2nnnc2SCCCSc2nnnn2-c2ccccc2)cc1` [Test compound 38, 1-Phenyl-5-[3-(1-phenyl-1,2,3,4-tetrazol-5-yl)thiopropyl]thio-1,2,3,4-tetrazole], the inhibition in vivo at 100 mg/kg in test [1] (setting [4]), in test [1] (setting [5]) and in test [1] (setting [6]) was 10 to 50% each time. As for `Cn1ccnc1SCCCSc1nnnn1C` [Test compound 11, 1-Methyl-5-[3-(1-methylimidazol-2-yl)thiopropyl]thio-1,2,3,4-tetrazole], the inhibition in vivo at 100 mg/kg in test [1] (setting [3]) is greater than 50%. The same measure, in the same setting: with `Cn1nnnc1SCCCSCc1ccccc1` [Test compound 22, 1-Methyl-5-(3-benzylthiopropyl)thio-1,2,3,4-tetrazole] the figure was greater than 50%; with `Cn1nnnc1SCc1ccccn1` [Test compound 98, 1-Methyl-5-(2-pyridylmethyl)thio-1,2,3,4-tetrazole], greater than 50%. Regarding `Cn1nnnc1SCCSc1nnnn1C` [Test compound 35, 1-Methyl-5-[2-(1-methyl-1,2,3,4-tetrazol-5-yl)thioethyl]thio-1,2,3,4-tetrazole], the “Inhibitory ratio, volume of gastric juice” value in test [1] (duodenal route) was “+ +”. Consider `Cc1nnc(SCCCSc2nnnn2C)n1C` [Test compound 15, 1-Methyl-5-[3-(4,5-dimethyl-1,2,4-triazol-3-yl)thiopropyl]thio-1,2,3,4-tetrazole], for which the inhibition in vivo at 300 mg/kg in test [2] (300 mg/kg, 0.5% CMC suspension) was greater than 60%.

As for `Cc1nnc(SC(C)CCSc2nnnn2C)o1` (stereo not shown) [Test compound 42, 1-Methyl-5-[3-methyl-3-(5-methyl-1,3,4-oxadiazol-2-yl)thiopropyl]thio-1,2,3,4-tetrazole], the inhibition in vivo in test [2] was greater than 60%. In the case of `Cn1nnnc1SCCCSCc1ccccn1` [Test compound 23, 1-Methyl-5-[3-(2-pyridyl)methylthiopropyl]thio-1,2,3,4-tetrazole], in test [1] (setting [3]), the inhibition in vivo at 100 mg/kg lay within 10 to 50%. Turning to `Cn1nnnc1SCCCCS(=O)(=O)c1nnnn1C` [Test compound 47, 4-(1-Methyl-1,2,3,4-tetrazol-5-yl)thiobutyl 1-methyl-1,2,3,4-tetrazol-5-yl sulfone], the inhibition in vivo at 100 mg/kg in test [1] (setting [3]) was greater than 50%. Take `CC(CC[S+]([O-])c1nnnn1C)Sc1nnnn1C` (stereo not shown) [Test compound 49, 1-Methyl-1,2,3,4-tetrazol-5-yl 3-methyl-3-(1-methyl-1,2,3,4-tetrazol-5-yl)thiopropyl sulfoxide]: the inhibition in vivo in test [2] is greater than 60%.

In the case of `Cc1nnnn1CCCC(=O)N1CCN(C)CC1` [Test compound 112, 5-Methyl-1-[3-(4-methyl-1-piperazinylcarbonyl)propyl]-1,2,3,4-tetrazole], the inhibition in vivo in test [2] was greater than 60%. As for `CCN(CCCSc1nnnn1C)C(=O)C1CCCC1` [Test compound 92, 1-Methyl-5-[3-(N-ethyl-N-cyclopentylcarbonylamino)propyl]thio-1,2,3,4-tetrazole], in test [1] (setting [3]), the inhibition in vivo at 100 mg/kg was in the range of 10 to 50%.

Consider `Cn1nnnc1SCCCCC(=O)c1ccccc1` [Test compound 71, 1-Methyl-5-(4-benzoylbutyl)thio-1,2,3,4-tetrazole], for which the inhibition in vivo at 100 mg/kg in test [1] (setting [3]) lay in the range of 10 to 50%. As for `Cn1nnnc1SCCCSc1ccccc1` [Test compound 10, 1-Methyl-5-(3-phenylthiopropyl)thio-1,2,3,4-tetrazole], the inhibition in vivo at 100 mg/kg in test [1] (setting [3]) lay within 10 to 50%.

Regarding `Cn1nnnc1SCCCSc1ccc([N+](=O)[O-])cn1` [Test compound 40, 1-Methyl-5-[3-(5-nitro-2-pyridyl)thiopropyl]thio-1,2,3,4-tetrazole], the inhibition in vivo in test [2] was greater than 60%.

`Cn1nnnc1SCCCSc1nnnn1C` [Test compound 37, 1-Methyl-5-[3-(1-methyl-1,2,3,4-tetrazol-5-yl)thiopropyl]thio-1,2,3,4-tetrazole]: the inhibition in vivo at 100 mg/kg in test [1] (setting [4]), in test [1] (setting [5]) and in test [1] (setting [6]) was greater than 50% each time. On to `Cn1nnnc1SCCCNC(=O)C1CCCCC1` [Test compound 81, 1-Methyl-5-(3-cyclohexylcarbonylaminopropyl)thio-1,2,3,4-tetrazole], for which the inhibition in vivo at 100 mg/kg in test [1] (duodenal route, read-out: Inhibitory ratio, pepsin activity) was 10 to 50%; in test [1] (duodenal route, read-out: Inhibitory ratio, total acidity) it was 10 to 50%; in test [1] (setting [3]), 10 to 50%.

As to `Cn1nnnc1[S+]([O-])CCCCSc1ccccn1` (stereo not shown) [Test compound 45, 1-Methyl-1,2,3,4-tetrazol-5-yl 4-(2-pyridyl)thiobutyl sulfoxide], the inhibition in vivo in test [2] was greater than 60%. As to `Cn1nnnc1SCCCCSc1ccccc1` [Test compound 28, 1-Methyl-5-(4-phenylthiobutyl)thio-1,2,3,4-tetrazole], the inhibition in vivo at 100 mg/kg in test [1] (setting [3]) is 10 to 50%.

Turning to `Cn1nnnc1SCCCS(=O)(=O)c1ccccn1` [Test compound 48, 3-(1-Methyl-1,2,3,4-tetrazol-5-yl)thiopropyl 2-pyridyl sulfone], the inhibition in vivo at 100 mg/kg in test [1] (setting [3]) fell in the range of 10 to 50%. On to `CCC(=O)CCCSc1nnnn1C` [Test compound 50, 1-Methyl-5-(3-propionylpropyl)thio-1,2,3,4-tetrazole], for which the inhibition in vivo at 100 mg/kg in test [1] (setting [4]), in test [1] (setting [5]) and in test [1] (setting [6]) was greater than 50% throughout. On to `Cn1nnnc1SCCCCCSc1ccccn1` [Test compound 32, 1-Methyl-5-[5-(2-pyridyl)thiopentyl]thio-1,2,3,4-tetrazole], for which the inhibition in vivo at 100 mg/kg in test [1] (setting [3]) lay within 10 to 50%.

Consider `Cn1nnnc1SCCCSc1ccncc1` [Test compound 25, 1-Methyl-5-[3-(4-pyridyl)thiopropyl]thio-1,2,3,4-tetrazole], for which, in test [2], the inhibition in vivo is greater than 60%. Turning to `Cn1nnnc1SCCCSCc1ccco1` [Test compound 21, 1-Methyl-5-[3-(2-furyl)methylthiopropyl]thio-1,2,3,4-tetrazole], the inhibition in vivo at 100 mg/kg in test [1] (setting [3]) is greater than 50%. The same measure, in the same setting: the result for `Cc1ccnc(SCCCSc2nnnn2C)n1` [Test compound 13, 1-Methyl-5-[3-(4-methyl-2-pyrimidyl)thiopropyl]thio-1,2,3,4-tetrazole] reads greater than 50%; that for `Cn1nnnc1SCCCSc1ccc2ccccc2n1` [Test compound 18, 1-Methyl-5-[3-(2-quinolyl)thiopropyl]thio-1,2,3,4-tetrazole], 10 to 50%.
